Tests used:
[1] = Compressibility (compression force versus tablet hardness); format: physicochemical; settings: 98% fructose + 2% leucine, direct compression 12 kN
Procedure: Compressibility: the compressibility was evaluated by measuring the compression force of the compression machine used and the hardness of the tablet. With the same hardness, the formulation that requires less compression force is more compressible.

[2] = Colour change of tablets after direct compression; format: physicochemical; settings: 98% fructose + 2% leucine
Procedure: The tablets were prepared by direct compression, after 15 min. mixing of the ingredients, using a Korsch XL 400 compression machine with force of 12 kN and rotation speed of 20,000 tablets/h.

[3] = Cracking off, operator observation; format: physicochemical; settings: 98% fructose + 2% leucine; operator evaluation
Procedure: Cracking off: the cracking off was evaluated directly by the machine operator by observing the tablets both during mould ejection and during the friability test. The tablets must never crack into two mirror-image parts with crack horizontal to the edge, or have visible cracks on the same edge.

[4] = Friability, evaluation by the operator; format: physicochemical; settings: 98% fructose + 2% leucine
Procedure: Friability: friability is measured with the friabilimeter and relative method described in Pharmacopoeia Europea (note: in our specific case, an evaluation by the operator was performed, not a measurement).

[5] = Tablet stability tests / stability to humidity; format: physicochemical; settings: tablets of 98% fructose + 2% leucine, grape versus commercial fructose
[6] = studies on mice followed by clinical trials on humans; cited from earlier work
[7] = at 20° C.; cited from earlier work
[8] = listed as crystalline grape fructose

SMILES: O=C(CO)[C@@H](O)[C@H](O)[C@H](O)CO [commercial fructose, fructose]
- Compressibility [1]: very poor
- colour change of tablet [2]: tendency to form yellow patches

SMILES: O=C(CO)[C@@H](O)[C@H](O)[C@H](O)CO [grape fructose, fructose]
- Compressibility [1]: compressed better
- Compressibility [1, 8]: compresses well
- Cracking off [3]: does not tend to cracking off
- Friability [4]: is not friable
- colour change of tablet [2]: did not change colour
- colour change of tablet [2, 8]: does not change colour
- stability [5]: more stable
- stability [5, 8]: more resistant to the stability tests

SMILES: O=C(CO)[C@@H](O)[C@H](O)[C@H](O)CO [fructose extracted from fruit, fructose]
- insulin secretion [6]: very low

SMILES: O=C(CO)[C@@H](O)[C@H](O)[C@H](O)CO [fructose]
- solubility in water [7]: approx. 80%
